The values that follow come from patent EP3154958B1, “PHOSPHATIDYLINOSITOL 3-KINASE INHIBITORS” (Gilead Sciences, Inc., priority 2014, dated 2015).

Common to all, as to assay type: biochemical
One test concerns the target T1, PI3Kβ (Homo sapiens, UniProt P42338).
T1 construct: made in house
Put plainly: TR-FRET enzymatic activity assay, PI3Kβ. As to the method:
(§1) The compounds of formula (I) were characterized for their enzymatic activity against the PI3K isoforms. The activities were measured using a time-resolved fluorescence resonance energy transfer (TR-FRET) assay.
(In TR-FRET formats the signal depends on donor and acceptor labels being close together.)

Another test addresses T2, PI3Kδ (Homo sapiens, UniProt O00329).
T2 construct: made in house
Put plainly: TR-FRET enzymatic activity assay, PI3Kδ. As to the method: as §1

For another test, the target named is T3, PI3Kγ (Homo sapiens, UniProt P48736).
T3 construct: made in house
As to the kind of experiment: TR-FRET enzymatic activity assay, PI3Kγ. The settings on record: recombinant heterodimeric PI3Kγ 2 nM, 2× Km ATP, 30 minutes at 25°C. As for the experimental part:
as §1

Setting [1] is: recombinant heterodimeric PI3Kβ 25-50 pM, 2× Km ATP, 30 minutes at 25°C.
The mark [2] stands for this setting: recombinant heterodimeric PI3Kδ 25-50 pM, 2× Km ATP, 30 minutes at 25°C.

Where two headings read alike, the source gives them in different places.

T3 sequence (P48736 whole entry): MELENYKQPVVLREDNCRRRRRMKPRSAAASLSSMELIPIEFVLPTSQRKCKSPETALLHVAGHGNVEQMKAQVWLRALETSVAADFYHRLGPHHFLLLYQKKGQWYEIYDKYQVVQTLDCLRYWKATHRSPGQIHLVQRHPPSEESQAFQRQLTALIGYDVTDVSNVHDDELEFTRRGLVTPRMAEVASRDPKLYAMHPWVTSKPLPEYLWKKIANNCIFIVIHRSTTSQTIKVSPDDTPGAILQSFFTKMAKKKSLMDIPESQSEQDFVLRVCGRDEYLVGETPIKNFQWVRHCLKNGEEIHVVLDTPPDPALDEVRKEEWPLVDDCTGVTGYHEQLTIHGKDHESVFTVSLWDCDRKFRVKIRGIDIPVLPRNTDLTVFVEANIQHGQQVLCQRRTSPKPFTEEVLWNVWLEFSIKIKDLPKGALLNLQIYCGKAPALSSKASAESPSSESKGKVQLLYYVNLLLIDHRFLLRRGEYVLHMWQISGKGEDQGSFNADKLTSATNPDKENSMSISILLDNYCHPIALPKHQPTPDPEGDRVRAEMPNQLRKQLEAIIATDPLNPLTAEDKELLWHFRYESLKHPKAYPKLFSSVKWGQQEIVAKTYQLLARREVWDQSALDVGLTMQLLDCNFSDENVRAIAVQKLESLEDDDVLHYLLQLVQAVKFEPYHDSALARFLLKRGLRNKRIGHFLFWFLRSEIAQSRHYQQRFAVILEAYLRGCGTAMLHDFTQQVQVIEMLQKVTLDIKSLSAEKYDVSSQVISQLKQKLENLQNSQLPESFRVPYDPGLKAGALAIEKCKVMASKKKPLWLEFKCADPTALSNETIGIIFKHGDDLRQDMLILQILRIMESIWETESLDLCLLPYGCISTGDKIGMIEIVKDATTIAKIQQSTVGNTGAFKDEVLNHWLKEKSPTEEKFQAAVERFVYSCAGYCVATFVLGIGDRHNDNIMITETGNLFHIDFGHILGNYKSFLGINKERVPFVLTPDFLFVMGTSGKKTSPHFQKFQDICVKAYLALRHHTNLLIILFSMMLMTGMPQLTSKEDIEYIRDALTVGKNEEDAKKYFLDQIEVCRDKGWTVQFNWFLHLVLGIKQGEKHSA
T3 sequence (Q8WYR1 whole entry partner): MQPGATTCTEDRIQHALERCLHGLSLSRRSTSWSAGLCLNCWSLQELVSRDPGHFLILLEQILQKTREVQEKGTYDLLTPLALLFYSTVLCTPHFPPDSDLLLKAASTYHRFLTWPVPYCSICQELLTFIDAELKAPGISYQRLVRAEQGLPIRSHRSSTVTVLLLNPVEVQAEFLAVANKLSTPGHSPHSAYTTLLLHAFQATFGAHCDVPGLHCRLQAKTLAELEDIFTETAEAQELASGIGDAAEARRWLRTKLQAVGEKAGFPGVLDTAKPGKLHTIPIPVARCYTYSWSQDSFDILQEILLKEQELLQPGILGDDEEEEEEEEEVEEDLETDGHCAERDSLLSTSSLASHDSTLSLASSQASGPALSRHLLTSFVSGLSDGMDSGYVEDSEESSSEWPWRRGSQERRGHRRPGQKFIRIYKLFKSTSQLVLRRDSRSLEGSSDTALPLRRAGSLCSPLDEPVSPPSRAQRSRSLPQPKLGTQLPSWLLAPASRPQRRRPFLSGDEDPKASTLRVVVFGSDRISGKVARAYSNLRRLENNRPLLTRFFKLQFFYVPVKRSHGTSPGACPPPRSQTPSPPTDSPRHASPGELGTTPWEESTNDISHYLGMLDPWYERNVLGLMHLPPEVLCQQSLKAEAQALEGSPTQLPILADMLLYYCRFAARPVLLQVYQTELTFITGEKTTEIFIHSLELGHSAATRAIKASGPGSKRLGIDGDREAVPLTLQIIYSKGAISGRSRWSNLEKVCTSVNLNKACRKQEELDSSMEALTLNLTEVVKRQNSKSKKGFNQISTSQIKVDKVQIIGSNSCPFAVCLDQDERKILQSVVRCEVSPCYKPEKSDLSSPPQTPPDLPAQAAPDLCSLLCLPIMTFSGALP
T2 sequence (O00329 whole entry): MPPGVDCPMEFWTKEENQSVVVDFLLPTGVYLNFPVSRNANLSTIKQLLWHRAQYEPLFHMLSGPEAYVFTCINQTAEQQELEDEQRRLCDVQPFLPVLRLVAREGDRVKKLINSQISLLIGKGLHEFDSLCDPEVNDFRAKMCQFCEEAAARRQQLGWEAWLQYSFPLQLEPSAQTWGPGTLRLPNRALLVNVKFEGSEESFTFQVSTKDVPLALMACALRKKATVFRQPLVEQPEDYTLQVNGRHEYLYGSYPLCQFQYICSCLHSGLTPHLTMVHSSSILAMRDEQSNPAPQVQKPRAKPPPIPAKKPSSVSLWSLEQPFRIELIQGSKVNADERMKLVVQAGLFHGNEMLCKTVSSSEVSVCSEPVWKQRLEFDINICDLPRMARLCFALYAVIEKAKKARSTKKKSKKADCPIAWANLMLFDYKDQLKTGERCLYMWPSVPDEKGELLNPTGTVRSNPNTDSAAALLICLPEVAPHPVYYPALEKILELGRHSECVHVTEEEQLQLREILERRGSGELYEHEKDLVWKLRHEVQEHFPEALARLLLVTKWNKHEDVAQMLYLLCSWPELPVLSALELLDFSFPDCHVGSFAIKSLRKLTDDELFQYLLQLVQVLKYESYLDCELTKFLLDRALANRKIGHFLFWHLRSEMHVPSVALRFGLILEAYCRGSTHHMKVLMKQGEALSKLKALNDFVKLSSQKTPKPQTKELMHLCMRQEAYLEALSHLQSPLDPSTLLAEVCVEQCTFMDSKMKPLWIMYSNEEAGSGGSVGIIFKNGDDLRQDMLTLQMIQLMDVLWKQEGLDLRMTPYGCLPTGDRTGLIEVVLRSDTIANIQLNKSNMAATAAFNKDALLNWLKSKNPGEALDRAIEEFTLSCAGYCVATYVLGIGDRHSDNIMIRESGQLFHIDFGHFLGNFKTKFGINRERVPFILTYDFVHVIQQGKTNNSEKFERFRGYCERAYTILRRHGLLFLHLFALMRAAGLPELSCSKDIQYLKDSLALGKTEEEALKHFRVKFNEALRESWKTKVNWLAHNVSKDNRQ
T2 sequence (P27986 whole entry partner): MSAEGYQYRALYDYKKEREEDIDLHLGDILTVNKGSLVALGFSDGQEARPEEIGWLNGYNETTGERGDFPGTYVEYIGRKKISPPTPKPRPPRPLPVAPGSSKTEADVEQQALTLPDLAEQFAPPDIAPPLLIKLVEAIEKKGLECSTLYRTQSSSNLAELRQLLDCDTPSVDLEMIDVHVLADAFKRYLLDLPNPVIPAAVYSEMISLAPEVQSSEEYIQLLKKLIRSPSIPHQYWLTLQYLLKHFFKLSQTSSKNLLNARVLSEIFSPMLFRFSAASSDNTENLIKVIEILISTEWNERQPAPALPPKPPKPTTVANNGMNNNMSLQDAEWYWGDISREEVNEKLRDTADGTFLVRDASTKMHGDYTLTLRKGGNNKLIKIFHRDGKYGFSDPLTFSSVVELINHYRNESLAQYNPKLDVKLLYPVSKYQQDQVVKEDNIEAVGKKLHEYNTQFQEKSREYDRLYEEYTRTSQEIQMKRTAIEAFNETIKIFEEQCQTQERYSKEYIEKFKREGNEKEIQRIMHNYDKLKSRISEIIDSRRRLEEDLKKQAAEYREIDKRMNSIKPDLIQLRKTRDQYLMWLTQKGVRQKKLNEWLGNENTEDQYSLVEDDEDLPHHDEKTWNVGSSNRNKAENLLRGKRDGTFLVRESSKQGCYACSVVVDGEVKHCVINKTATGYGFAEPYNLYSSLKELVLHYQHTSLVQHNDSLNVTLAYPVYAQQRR
T1 sequence (P42338 whole entry): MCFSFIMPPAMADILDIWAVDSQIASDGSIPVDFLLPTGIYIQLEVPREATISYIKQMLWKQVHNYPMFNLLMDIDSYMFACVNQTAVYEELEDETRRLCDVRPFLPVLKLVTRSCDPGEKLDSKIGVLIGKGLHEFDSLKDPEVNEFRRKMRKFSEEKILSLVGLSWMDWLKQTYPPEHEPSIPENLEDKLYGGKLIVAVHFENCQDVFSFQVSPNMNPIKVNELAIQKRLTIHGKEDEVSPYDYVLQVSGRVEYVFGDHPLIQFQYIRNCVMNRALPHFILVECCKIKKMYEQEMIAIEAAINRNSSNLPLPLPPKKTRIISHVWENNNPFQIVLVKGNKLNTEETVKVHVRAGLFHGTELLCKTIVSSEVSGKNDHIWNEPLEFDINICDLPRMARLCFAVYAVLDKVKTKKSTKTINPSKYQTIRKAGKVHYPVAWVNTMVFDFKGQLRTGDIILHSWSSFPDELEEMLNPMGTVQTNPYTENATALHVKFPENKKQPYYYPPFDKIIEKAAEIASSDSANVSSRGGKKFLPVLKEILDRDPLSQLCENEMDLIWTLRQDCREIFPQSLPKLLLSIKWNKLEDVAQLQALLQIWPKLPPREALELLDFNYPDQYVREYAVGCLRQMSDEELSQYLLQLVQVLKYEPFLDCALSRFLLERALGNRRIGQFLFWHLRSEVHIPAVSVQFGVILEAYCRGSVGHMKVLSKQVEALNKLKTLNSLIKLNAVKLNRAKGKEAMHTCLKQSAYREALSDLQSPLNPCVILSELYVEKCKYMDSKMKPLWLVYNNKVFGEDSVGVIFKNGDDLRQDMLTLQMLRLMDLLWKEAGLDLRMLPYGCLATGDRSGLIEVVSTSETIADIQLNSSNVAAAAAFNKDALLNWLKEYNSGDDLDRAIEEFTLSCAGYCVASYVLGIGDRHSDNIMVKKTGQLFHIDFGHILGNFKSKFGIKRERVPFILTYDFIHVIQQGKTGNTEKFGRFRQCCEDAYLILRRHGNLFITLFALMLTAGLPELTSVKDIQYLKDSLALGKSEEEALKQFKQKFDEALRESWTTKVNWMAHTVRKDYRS
T1 sequence (P27986 whole entry partner): as the sequence (P27986 whole entry partner) above

Usually IC50 stands for the concentration that gives 50% inhibition. Take `C[C@H](Nc1nc(N)nc(N)c1C#N)c1nc2cccc(Cl)c2c(=O)n1C1CCNCC1(F)F` (stereo partly drawn) [Compound 38, 2,4-diamino-6-(((1S)-1-(5-chloro-3-(3,3-difluoropiperidin-4-yl)-4-oxo-3,4-dihydroquinazolin-2-yl)ethyl)amino)pyrimidine-5-carbonitrile]: the IC50 was found to be 220 nM on PI3Kβ (setting [1]), 6 nM at PI3Kδ (setting [2]) and 1500 nM on PI3Kγ.

Turning to `C[C@H](Nc1nc(N)nc(N)c1C#N)c1nc2cccc(Cl)c2c(=O)n1N1CCNC(C(F)(F)F)C1` (stereo partly drawn) [Compound 61, 2,4-diamino-6-(((1S)-1-(5-chloro-4-oxo-3-(3-(trifluoromethyl)piperazin-1-yl)-3,4-dihydroquinazolin-2-yl)ethyl)amino)pyrimidine-5-carbonitrile], the results for the IC50 on PI3Kβ (setting [1]), on PI3Kδ (setting [2]) and on PI3Kγ were 150 nM, 0.9 nM and 400 nM, respectively.

`N#Cc1c(N)nc(N)nc1N[C@H](c1nc2c(F)ccc(Cl)c2c(=O)n1N1CCNCC1)C1CC1` [Compound 48, (S)-2,4-diamino-6-(((5-chloro-8-fluoro-4-oxo-3-(piperazin-1-yl)-3,4-dihydroquinazolin-2-yl)(cyclopropyl)methyl)amino)pyrimidine-5-carbonitrile]: the IC50 at PI3Kβ (setting [1]) was determined as 3 nM; at PI3Kδ (setting [2]), 1 nM; on PI3Kγ, 3300 nM.

Regarding `C[C@H](Nc1nc(N)nc(Cl)c1C#N)c1nc2cccc(Cl)c2c(=O)n1C1CCNCC1` [Compound 128, (S)-2-Amino-4-chloro-6-((1-(5-chloro-4-oxo-3-(piperidin-4-yl)-3,4-dihydroquinazolin-2-yl)ethyl)amino)pyrimidine-5-carbonitrile], the IC50 on PI3Kβ (setting [1]) is 10 nM; on PI3Kδ (setting [2]), 14 nM; on PI3Kγ it was above 10000 nM.

Regarding `Cc1nc(N)nc(N[C@@H](C)c2nc3cccc(Cl)c3c(=O)n2N2CCN(CC(F)F)CC2)c1C#N` [Compound 114, (S)-2-amino-4-((1-(5-chloro-3-(4-(2,2-difluoroethyl)piperazin-1-yl)-4-oxo-3,4-dihydroquinazolin-2-yl)ethyl)amino)-6-methylpyrimidine-5-carbonitrile], the IC50 at PI3Kβ (setting [1]) stood at 300 nM; on PI3Kδ (setting [2]), 26 nM; on PI3Kγ, 560 nM.

Consider `N#Cc1c(N)nc(N)nc1N[C@H](c1nc2c(F)ccc(F)c2c(=O)n1N1CCNCC1)C1CC1` [Compound 127, (S)-2,4-diamino-6-((cyclopropyl(5,8-difluoro-4-oxo-3-(piperazin-1-yl)-3,4-dihydroquinazolin-2-yl)methyl)amino)pyrimidine-5-carbonitrile], for which the half-maximal inhibitory concentration (IC50) is 28 nM on PI3Kβ (setting [1]), 13 nM on PI3Kδ (setting [2]) and above 10000 nM at PI3Kγ.

Turning to `C[C@H](Nc1ncnn2ccnc12)c1nc2cccc(Cl)c2c(=O)n1N1CCCNCC1` [Compound 64, (S)-5-chloro-3-(1,4-diazepan-1-yl)-2-(1-(imidazo[2,1-f][1,2,4]triazin-4-ylamino)ethyl)quinazolin-4(3H)-one], the IC50 is 94 nM on PI3Kβ (setting [1]), 9 nM on PI3Kδ (setting [2]) and above 10000 nM on PI3Kγ.

Take `Nc1nc(N)c(Cl)c(N[C@H](c2nc3cccc(Cl)c3c(=O)n2N2CCOCC2)C2CC2)n1` [Compound 122, (S)-5-chloro-2-(cyclopropyl((2,6-diamino-5-chloropyrimidin-4-yl)amino)methyl)-3-morpholinoquinazolin-4(3H)-one]: the IC50 amounted to 1800 nM on PI3Kβ (setting [1]), 19 nM on PI3Kδ (setting [2]) and 2200 nM at PI3Kγ.

For the molecule `C[C@H](Nc1ncnc2cccnc12)c1nc2cccc(Cl)c2c(=O)n1N1CCNCC1` [Compound 73, (S)-5-chloro-3-(piperazin-1-yl)-2-(1-(pyrido[3,2-d]pyrimidin-4-ylamino)ethyl)quinazolin-4(3H)-one], the IC50 was 19 nM on PI3Kβ (setting [1]), 8 nM at PI3Kδ (setting [2]) and above 10000 nM at PI3Kγ.

Consider `CC[C@H](Nc1nc(N)nc(N)c1C#N)c1nc2cccc(Cl)c2c(=O)n1N1CCNCC1` [Compound 68, (S)-2,4-diamino-6-((1-(5-chloro-4-oxo-3-(piperazin-1-yl)-3,4-dihydroquinazolin-2-yl)propyl)amino)pyrimidine-5-carbonitrile], for which the figures for the IC50 on PI3Kβ (setting [1]), on PI3Kδ (setting [2]) and at PI3Kγ were 1 nM, 3 nM and 2100 nM, respectively.

For the molecule `C[C@H](Nc1ncnc(N)c1C#N)c1nc2cccc(Cl)c2c(=O)n1C1CCN(CC(F)F)CC1` [Compound 105, (S)-4-amino-6-((1-(5-chloro-3-(1-(2,2-difluoroethyl)piperidin-4-yl)-4-oxo-3,4-dihydroquinazolin-2-yl)ethyl)amino)pyrimidine-5-carbonitrile], the IC50 is 1900 nM on PI3Kβ (setting [1]), 9 nM on PI3Kδ (setting [2]) and above 10000 nM at PI3Kγ.

For the molecule `C[C@H](Nc1ncnc(N)c1C#N)c1nc2cccc(Cl)c2c(=O)n1N1CCC(N)CC1` [Compound 131, (S)-4-amino-6-((1-(3-(4-aminopiperidin-1-yl)-5-chloro-4-oxo-3,4-dihydroquinazolin-2-yl)ethyl)amino)pyrimidine-5-carbonitrile], the IC50 was 450 nM on PI3Kβ (setting [1]), 6 nM at PI3Kδ (setting [2]) and above 10000 nM on PI3Kγ.

As to `C[C@H](Nc1nc(N)nc(N)c1C#N)c1nc2cccc(Cl)c2c(=O)n1N1CCN(CC(F)(F)F)CC1` [Compound 107, (S)-2,4-diamino-6-((1-(5-chloro-4-oxo-3-(4-(2,2,2-trifluoroethyl)piperazin-1-yl)-3,4-dihydroquinazolin-2-yl)ethyl)amino)pyrimidine-5-carbonitrile], the values for the IC50 on PI3Kβ (setting [1]), at PI3Kδ (setting [2]) and on PI3Kγ were 520 nM, 16 nM and 630 nM, respectively.

Consider `CN1CCN(n2c([C@@H](Nc3nc(N)nc(N)c3Cl)C3CC3)nc3cccc(Cl)c3c2=O)CC1` [Compound 2, (S)-5-chloro-2-(cyclopropyl((2,6-diamino-5-chloropyrimidin-4-yl)amino)methyl)-3-(4-methylpiperazin-1-yl)quinazolin-4(3H)-one], for which the IC50 on PI3Kβ (setting [1]) is 950 nM; at PI3Kδ (setting [2]), 260 nM; on PI3Kγ it was above 10000 nM.

Turning to `O=c1c2c(Cl)cccc2nc([C@@H]2CCCN2c2ncnn3ccnc23)n1N1CCNCC1` [Compound 133, (S)-5-chloro-2-(1-(imidazo[2,1-f][1,2,4]triazin-4-yl)pyrrolidin-2-yl)-3-(piperazin-1-yl)quinazolin-4(3H)-one], the IC50 on PI3Kβ (setting [1]) is 900 nM; on PI3Kδ (setting [2]), 75 nM; at PI3Kγ, above 10000 nM.

As to `C[C@H](Nc1nc(N)nc(N)c1C#N)c1nc2c(F)ccc(Cl)c2c(=O)n1N1CCNCC1` [Compound 54, (S)-2,4-diamino-6-((1-(5-chloro-8-fluoro-4-oxo-3-(piperazin-1-yl)-3,4-dihydroquinazolin-2-yl)ethyl)amino)pyrimidine-5-carbonitrile], the IC50 stood at 4 nM at PI3Kβ (setting [1]), 2 nM on PI3Kδ (setting [2]) and 1900 nM at PI3Kγ.

For the molecule `C[C@H](Nc1nc(N)nc(N)c1C#N)c1nc2c(F)ccc(F)c2c(=O)n1N1CCNCC1` [Compound 39, (S)-2,4-diamino-6-((1-(5,8-difluoro-4-oxo-3-(piperazin-1-yl)-3,4-dihydroquinazolin-2-yl)ethyl)amino)pyrimidine-5-carbonitrile], the IC50 turned out to be 4 nM on PI3Kβ (setting [1]), 3 nM at PI3Kδ (setting [2]) and 5400 nM on PI3Kγ.

`CC[C@H](Nc1nc(N)nc(N)c1C#N)c1nc2c(F)ccc(Cl)c2c(=O)n1N1CCN(Cc2ccccc2)CC1` [Compound 95, (S)-2,4-diamino-6-((1-(3-(4-benzylpiperazin-1-yl)-5-chloro-8-fluoro-4-oxo-3,4-dihydroquinazolin-2-yl)propyl)amino)pyrimidine-5-carbonitrile]: the IC50 is 96 nM on PI3Kβ (setting [1]), 38 nM at PI3Kδ (setting [2]) and 2000 nM at PI3Kγ.

As for `C[C@H](Nc1nc(N)nc(N)c1C#N)c1nc2cccc(Cl)c2c(=O)n1N1CCNCC1` [Compound 57, (S)-2,4-diamino-6-((1-(5-chloro-4-oxo-3-(piperazin-1-yl)-3,4-dihydroquinazolin-2-yl)ethyl)amino)pyrimidine-5-carbonitrile], on PI3Kγ, the IC50 was determined as 710 nM.

`C[C@H](NC(=O)c1nccnc1N)c1nc2cccc(Cl)c2c(=O)n1N1CCNCC1` [Compound 56, (S)-3-amino-N-(1-(5-chloro-4-oxo-3-(piperazin-1-yl)-3,4-dihydroquinazolin-2-yl)ethyl)pyrazine-2-carboxamide]: the IC50 was determined as 21 nM on PI3Kβ (setting [1]) and 230 nM on PI3Kδ (setting [2]).

Consider `Cc1nc(N)nc(N[C@@H](C)c2nc3cccc(Cl)c3c(=O)n2[C@H]2CCCNCC2)c1C#N` [Compound 10, 2-amino-4-(((S)-1-(3-((S)-azepan-4-yl)-5-chloro-4-oxo-3,4-dihydroquinazolin-2-yl)ethyl)amino)-6-methylpyrimidine-5-carbonitrile], for which, on PI3Kγ, the IC50 was above 10000 nM.

With `C[C@H](Nc1nc(N)nc(N)c1C#N)c1nc2c(Cl)ccc(Cl)c2c(=O)n1N1CCNCC1` [Compound 53, (S)-2,4-diamino-6-((1-(5,8-dichloro-4-oxo-3-(piperazin-1-yl)-3,4-dihydroquinazolin-2-yl)ethyl)amino)pyrimidine-5-carbonitrile], the half-maximal inhibitory concentration (IC50) is 27 nM at PI3Kβ, 4 nM at PI3Kβ (setting [1]), 6 nM on PI3Kδ and 3 nM at PI3Kδ (setting [2]).

With `Cc1nc(N)nc(N[C@@H](C)c2nc3cccc(Cl)c3c(=O)n2[C@@H]2CCCNCC2)c1C#N` [Compound 11, 2-amino-4-(((S)-1-(3-((R)-azepan-4-yl)-5-chloro-4-oxo-3,4-dihydroquinazolin-2-yl)ethyl)amino)-6-methylpyrimidine-5-carbonitrile], on PI3Kγ, the IC50 is above 10000 nM.
